# In patent US20250134870A1, “PATHWAY MODULATOR, PHARMACEUTICAL COMPOSITION HAVING SAME, USE THEREOF, AND THERAPEUTIC METHOD USING SAME” (Jiangsu Yahong Meditech Co., Ltd., priority 2021, published 2025):
# Like-named read-outs stand apart in the source and are kept apart here.
# Assays:
# [1] = tested on: 2,4-dinitrobenzenesulfonic acid (DNBS)-induced colitis; test: DNBS-induced enteritis/colitis in rats: body weight and stool score (Example 10); assay type: in vivo, Wistar rats; conditions: positive control drug
# Method: The 90 animals were randomly grouped on Day-1 (i.e., the day before the experiment) based on animal body weight to ensure that the body weight of each group of animals were similar, so as to reduce bias. Rats were fasted for 40 hours before the experiment and were injected subcutaneously with 5% glucose saline (10 mL/kg, once daily) during fasting. • Experimental grouping:
# On Day 1 of the experiment, fasting rats were anesthetized by intraperitoneal injection with Zoletil (25 mg/kg Tiletamine and 25 mg/kg Zolazepam) and 5 mg/kg Xylazine.
# In groups G2-G6, a hose was inserted from the anus to left colic flexure (about 8 cm from the anus) and colitis was induced by DNBS enema (0.5 mL/animal) in rats. The normal control group (G1) received 30% ethanol enema by the same process. The head of the animal after enema was lowered for 15 min, and then the animal was kept in Trendelenburg position until waked to avoid backflow of the enema fluid.
# The percentage of body weight was calculated according to the following formula: (body weight on Day X-initial weight)/initial weight]×100%.
# (2) Stool score: during the experiment, the stool state of rats was scored daily (0=normal, 1=wet/sticky, 2=loose, 3=liquid).
# [2] = tested on: 2,4-dinitrobenzenesulfonic acid (DNBS)-induced colitis; test: DNBS-induced colitis in rats: macroscopic evaluation of colon on Day 7 (colon length, weight, ulcer area, CW/CL, CW/BW, CW/CL/BW); assay type: in vivo, Wistar rats; conditions: for inhibition at 9 mg/kg: Rattus norvegicus, 168 h
# Method: (3) Colon observation: after the end of the experiment, all animals were anesthetized with Zoletil (intravenous injection, 25 mg/kg) and the abdominal cavity was opened. Blood was collected from the abdominal aorta with EDTA anticoagulation (centrifugation conditions: 4° C., 2,000 g, 10 min). After the animals were sacrificed by bloodletting, the colon (from the cecum to the anus) was dissected and the colon length was measured immediately. The colon was longitudinally incised and rinsed until clean. Then the colon weight and ulcer area were recorded, and the colon was photographed as a whole and divided into three parts, among which two parts were stored at −80° C. after flash freezing with liquid nitrogen for MPO and cytokine detection, and the other part of colon was fixed with 10% neutral buffered formalin. If the ulcer was irregularly shaped, it could be considered as rectangular, and then its length and width were measured for ulcer area assessment. Ulcer area (cm^2)=ulcer length (cm)×ulcer width (cm).
# [3] = tested on: 2,4-dinitrobenzenesulfonic acid (DNBS)-induced colitis; test: DNBS-induced colitis in rats: pathological score of colon tissue (H&E); assay type: in vivo, Wistar rats
# Source text: The proximal, ulcer (corresponding sites can be taken, if there was no ulcer) and distal parts of the colon tissue fixed by neutral buffered formalin were embedded with paraffin, sectioned (thickness 5 μm), and histopathological score was given by H&E staining.
# [4] = tested on: dextran sulfate sodium (DSS)-induced colitis; test: DSS-induced colitis in mice: body weight, DAI score, colon density (Examples 1, 3); assay type: in vivo, C57BL/6J mice; conditions: for Colon density: experimental endpoint
# Method: 8-10 week old female C57BL/6J mice purchased from Charles River Laboratories were used. The mice were housed in a room at constant temperature (20+2° C.) (5 mice per cage) with a 12-hour light-dark cycle. All protocols were approved by the Institutional Animal Care and Use Committee of WuXi AppTec. These mice were adapted to the housing conditions at the animal experiment center of WuXi AppTec for at least three days prior to the experiment. […] At the experimental endpoint (see hereinafter), mice were euthanized and endpoint samples were obtained. Mice in the normal group were not given 3% DSS aqueous solution to induce colitis and were free to drink blank water. […] The animal body weight and DAI score were assessed under double-blind conditions, that is, the researchers collected the body weight data of mice and observed and scored the stool characteristics and blood stools every day, without knowing the group and dosing regimen. The DAI score was the sum of the weight loss score, stool score and bleeding score. […] The data were analyzed by analysis of variance, specifically by using the following process: using Graph Pad Prism 6.0 software to carry out post-hoc Dunnett's multiple comparison test. […] Data were expressed as mean±S.E.M. The experimental endpoint was 24 hours after administration on Day 8 for the positive drug control group and the Test group 1 #to Test group 7 #of Example 1; the experimental endpoint of the normal group and the solvent group was the same as that of the positive drug control group and Test group 1 #to Test group 7 #.
# [5] = tested on: mesenteric lymph node immune cell subpopulations; test: Flow cytometry of immune cell subpopulations and cytokines in mesenteric lymph nodes of DSS colitis mice (Examples 2, 4); assay type: in vivo, C57BL/6J mice; conditions: 100 mg/kg PO QD × 8 days (Test group 7#) vs solvent group
# Method: The experimental endpoint was 24 hours after administration on Day 8 for the positive drug control group and the Test group 1 #to Test group 7 #of Example 1; the experimental endpoint of the normal group and the solvent group was the same as that of the positive drug control group and Test group 1 #to Test group 7 #.
# At the experimental endpoint, mesenteric lymphatic nodes were collected and treated as follows:
# 1) The mesenteric lymph nodes were gently grinded and filtered with a […] strainer (BD bioscience, Catalog No. 352350) to obtain a cell suspension, and the cells were counted.
# 2) The cells were suspended in a suspension solution (the suspension solution was prepared by the following process: diluting the cell activation mixture with a mixture of 90 v % 1640 medium and 10 v % fetal bovine serum to a concentration of 1×), the cell density was adjusted to 2.5×10^7/mL, and the cells were incubated at 37° C. for 5 hours. 3) The cells were washed with Dulbecco's Phosphate Buffered Saline, and stained with viable/dead stain (stain No. 12 in Table 5) at room temperature for 15 min to distinguish between viable cells and dead cells; the cells were washed with staining buffer (prepared by mixing fetal bovine serum and Dulbecco's Phosphate Buffered Saline at a volume ratio of 2:98), Fc block working solution (prepared by mixing Fc block and staining buffer at a volume ratio of 1:200) was added, and the cells were incubated at room temperature for 15 minutes.
# 4) The cells were surface labeled with 100 μL of antibody staining solution for flow cytometry without washing and incubated at 4° C. for 30 minutes.
# 5) The cells were washed once with staining buffer, 100 μL of cell fixative solution was added, and the cells were incubated at 4° C. overnight.
# 6) 200 μL of cell permeabilization solution was added and incubated at 4° C. for 30 minutes.
# 7) After washing with 250 μL of cell permeabilization solution, the cells were suspended with 100 μL of staining buffer and fluorescence was detected with a BD LSRFortessa instrument.
# 8) The cell subpopulations analyzed by flow cytometry included CD4+ T cell subpopulation, IL-17A+CD4+ T cell subpopulation, IFN-γ+CD4+ T cell subpopulation, TNF-α+CD4+ T cell subpopulation, CD25+FOXP3+ Treg cell subpopulation; CD8+ T cell subpopulation, IL-17A+CD8+ T cell subpopulation, IFN-γ+CD8+ T cell subpopulation, TNF-α+CD8+ T cell subpopulation; CD69+B220+ B cell subpopulation and NK1.1+CD107a+ NK cell subpopulation.
# norepinephrine level = conditions: cited from earlier work
# [6] = 1200 mg; 10 consecutive days; NCT02151994; cited from earlier work
# [7] = rats with spontaneous hypertension
smiles,measurement,setting,value
C[C@]12C=CC(=O)C=C1CC[C@@H]1[C@@H]2C(=O)C[C@@]2(C)[C@H]1CC[C@]2(O)C(=O)CO [Prednisone],stool form score AUC,[1],significantly reduce
same,inhibition at 9 mg/kg,"[2]; G3, 9 mg/kg PO QD × 7, read-out: IR1 (inhibition rate 1, CW/CL/BW)",44.2%
same,inhibition at 9 mg/kg,"[2]; G3, 9 mg/kg PO QD × 7, read-out: IR2 (inhibition rate 2, CW/BW)",50.1%
same,inhibition at 9 mg/kg,"[2]; G3, 9 mg/kg PO QD × 7, read-out: IR3 (inhibition rate 3, CW/CL)",46.5%
same,BW,"[2]; mean, G3, 9 mg/kg PO QD × 7",162.92 g
same,CW/BW ×100,"[2]; mean, G3, 9 mg/kg PO QD × 7",0.99
same,Ulcer area,"[2]; mean, G3, 9 mg/kg PO QD × 7",1.26 cm^2
same,Ulcer length,"[2]; mean, G3, 9 mg/kg PO QD × 7",0.77 cm
same,Ulcer width,"[2]; mean, G3, 9 mg/kg PO QD × 7",0.85 cm
same,colon weight,[2]; positive control drug,significantly reduce
same,"Pathological score, Distal end, Damage","[3]; mean, G3, 9 mg/kg PO QD × 7",1.33
same,"Pathological score, Distal end, Inflammation","[3]; mean, G3, 9 mg/kg PO QD × 7",2.00
same,"Pathological score, Proximal end, Damage","[3]; mean, G3, 9 mg/kg PO QD × 7",0.80
same,"Pathological score, Proximal end, Inflammation","[3]; mean, G3, 9 mg/kg PO QD × 7",1.73
same,"Pathological score, Total score, Damage","[3]; mean, G3, 9 mg/kg PO QD × 7",4.00
same,"Pathological score, Total score, Inflammation","[3]; mean, G3, 9 mg/kg PO QD × 7",6.07
same,"Pathological score, Ulcer end, Damage","[3]; mean, G3, 9 mg/kg PO QD × 7",1.87
same,"Pathological score, Ulcer end, Inflammation","[3]; mean, G3, 9 mg/kg PO QD × 7",2.33
same,inflammatory cell infiltration score of colon ulcer end,[3]; positive control drug,significantly reduce
Fc1cc(F)c2c(c1)C[C@@H](n1c(CCNCc3ccccc3)c[nH]c1=S)CO2 [Zamicastat],"Body weight on Day 7, g",[4]; 10 mg/kg PO QD × 8 days,19.26 g
same,"Body weight on Day 7/initial body weight, %",[4]; 10 mg/kg PO QD × 8 days,91.68%
same,"Body weight on Day 8, g",[4]; 10 mg/kg PO QD × 8 days,18.37 g
same,"Body weight on Day 8/initial body weight, %",[4]; 10 mg/kg PO QD × 8 days,87.45%
same,DAI score on Day 8,[4]; 10 mg/kg PO QD × 8 days,6.30
same,"Body weight on Day 7, g",[4]; 30 mg/kg PO QD × 8 days,18.96 g
same,"Body weight on Day 7/initial body weight, %",[4]; 30 mg/kg PO QD × 8 days,91.04%
same,"Body weight on Day 8, g",[4]; 30 mg/kg PO QD × 8 days,17.78 g
same,"Body weight on Day 8/initial body weight, %",[4]; 30 mg/kg PO QD × 8 days,85.35%
same,DAI score on Day 8,[4]; 30 mg/kg PO QD × 8 days,6.30
same,"Body weight on Day 7, g",[4]; 100 mg/kg PO QD × 8 days,19.66 g
same,"Body weight on Day 8, g",[4]; 100 mg/kg PO QD × 8 days,18.75 g
same,"Body weight on Day 8/initial body weight, %",[4]; 100 mg/kg PO QD × 8 days,89.17%
same,DAI score on Day 8,[4]; 100 mg/kg PO QD × 8 days,5.20
same,severity of DSS-induced colitis and disease activity,"[4]; Nepicastat 30, Etamicastat 100, Zamicastat 100 mg/kg PO QD × 8 days (Test groups 1#, 4#, 7#) vs solvent group",ameliorated the severity of DSS-induced colitis and reduced disease activity
same,Colon density,[4]; 10 mg/kg PO QD × 8 days,35.04 mg/cm
same,Colon density,[4]; 30 mg/kg PO QD × 8 days,36.37 mg/cm
same,proportion of CD4+ T cell subpopulation,[5],reduce the proportion
same,proportion of CD25+FOXP3+ Treg cell subpopulation,[5],increase the proportion
same,secretion of IFN-γ by CD4+ T cell subpopulation,[5],reduce the secretion
same,secretion of IL-17A by CD4+ T cell subpopulation,[5],reduce the secretion
same,secretion of TNF-α by CD4+ T cell subpopulation,[5],reduce the secretion
same,brain-blood-barrier penetration,norepinephrine level; compared with Nepicastat,lower levels of brain-blood-barrier penetration
same,effect on brain tissue (norepinephrine level),norepinephrine level; [7],no effect on brain tissue
same,norepinephrine level in peripheral sympathetic innervation tissues,norepinephrine level; [7],reduce the norepinephrine level in peripheral sympathetic innervation tissues
same,safety,[6],relatively good safety
